Format in all cases: in vivo
Test [1] concerns tropical (T.) spiderwort (Commelina benghalensis). The test is described as follows: Test E pre-/postemergence plant response. Particulars: scale 0 to 100. The method in brief: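 Pre/post herbicide screen; formulation: non-phytotoxic solvent mix + surfactant. Post timing 1–4 leaves (2–18 cm ht). Greenhouse 14–21 d; visual 0 (none) to 100 (complete control) vs controls.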
For test [2], the system named is blackgrass (Alopecurus myosuroides). The test is described as follows: Test A pre-/postemergence plant response. Put shortly: (§1)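 Seeds sown in loam–sand blend; test chemicals in non-phytotoxic solvent with surfactant applied preemergence as directed soil spray and, concurrently, postemergence to plants 2–10 cm tall at one- to two-leaf stage. Greenhouse ~10 days, then visual injury rating vs untreated controls on 0–100 scale (0 = no effect, 100 = complete control).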

Test [3] concerns canarygrass (Phalaris minor). Put plainly: Test A pre-/postemergence plant response. Put shortly: as §1
[4] abbreviates: Postemergence, 31 g ai/ha, 0 to 100 scale (0 no effect, 100 complete control).
Where [5] appears, read: Postemergence, 125 g ai/ha, 0 to 100 scale, 0 no effect, 100 complete control.
Where [6] appears, read: Preemergence, 31 g ai/ha, 0 to 100 scale, 0 is no effect, 100 is complete control.
[7] abbreviates: Preemergence, 125 g ai/ha, 0 to 100 scale (0 no effect, 100 complete control).

On to `Cn1ncc(O)c(-c2nn(-c3ccc(Cl)cc3)cc2Br)c1=O` [Compound 31], for which the “Plant response rating, Spiderwort, T.” value in test [1] (16 g ai/ha, Preemergence) came to 0; in test [1] (31 g ai/ha, Preemergence), 0; in test [1] (62 g ai/ha, Preemergence) it was 0; in test [1] (Postemergence, 8 g ai/ha), 0; in test [1] (Postemergence, 16 g ai/ha), 0; in test [1] (Postemergence, 31 g ai/ha), 0. In test [1] (Postemergence, 62 g ai/ha), the “Plant response rating, Spiderwort, T.” value was 0.

As for `Cc1cc(-c2ccc(Cl)cc2)nn1-c1c(OS(C)(=O)=O)cnn(C)c1=O` [Compound 36], the “Plant response rating, Spiderwort, T.” value is listed as 0 in test [1] (16 g ai/ha, Preemergence); 0 in test [1] (31 g ai/ha, Preemergence); 0 in test [1] (62 g ai/ha, Preemergence); 0 in test [1] (Postemergence, 8 g ai/ha); 0 in test [1] (Postemergence, 16 g ai/ha); 0 in test [1] (Postemergence, 31 g ai/ha). Moreover, the “Plant response rating, Spiderwort, T.” value in test [1] (Postemergence, 62 g ai/ha) came to 0.

Consider `Cc1cc(-c2ccc(Cl)cc2)nn1-c1c(OC(=S)N(C)C)cnn(C)c1=O` [Compound 69], for which the “Plant response rating, Blackgrass” value in test [2] (setting [4]) is recorded as 10; in test [2] (setting [5]) it was 60; in test [2] (setting [6]) it was 20; in test [2] (setting [7]), 40. For the same molecule, the “Plant response rating, Canarygrass” value is reported as 0 in test [3] (setting [4]), 80 in test [3] (setting [5]) and 80 in test [3] (setting [7]).

For the molecule `COCc1cc(-c2ccc(Br)cc2)nn1-c1c(O)cnn(C)c1=O` [Compound 68], the “Plant response rating, Blackgrass” value in test [2] (setting [4]) is 0; in test [2] (setting [5]), 80; in test [2] (setting [6]), 0; in test [2] (setting [7]) it was 50. Also, the “Plant response rating, Canarygrass” value in test [3] (setting [4]) turned out to be 0; in test [3] (setting [5]), 40; in test [3] (setting [6]) it was 0; in test [3] (setting [7]), 20.

For `Cc1nn(C)c(=O)c(-n2nc(-c3ccc(Br)cc3)cc2C)c1O` [Compound 81], the “Plant response rating, Blackgrass” value in test [2] (setting [4]) amounted to 100; in test [2] (setting [5]), 100; in test [2] (setting [6]), 70; in test [2] (setting [7]), 100. The “Plant response rating, Canarygrass” value stood at 60 in test [3] (setting [4]), 100 in test [3] (setting [5]), 50 in test [3] (setting [6]) and 90 in test [3] (setting [7]).

Turning to `COC(=O)Oc1cnn(C)c(=O)c1-n1nc(-c2ccc(Cl)cc2)cc1C` [Compound 33], the “Plant response rating, Spiderwort, T.” value in test [1] (16 g ai/ha, Preemergence) stood at 0; in test [1] (31 g ai/ha, Preemergence), 0; in test [1] (62 g ai/ha, Preemergence) it was 0; in test [1] (Postemergence, 8 g ai/ha), 0; in test [1] (Postemergence, 16 g ai/ha), 0; in test [1] (Postemergence, 62 g ai/ha), 0.

As to `CCc1cc(-c2ccc(Cl)cc2)nn1-c1c(OC(=O)C(C)(C)C)cnn(C)c1=O` [Compound 40], the “Plant response rating, Spiderwort, T.” value in test [1] (16 g ai/ha, Preemergence) came out at 0; in test [1] (31 g ai/ha, Preemergence), 0; in test [1] (62 g ai/ha, Preemergence) it was 0; in test [1] (Postemergence, 8 g ai/ha) it was 0; in test [1] (Postemergence, 16 g ai/ha) it was 0; in test [1] (Postemergence, 31 g ai/ha), 0. The “Plant response rating, Spiderwort, T.” value in test [1] (Postemergence, 62 g ai/ha) amounted to 0.

Consider `Cc1cc(-c2ccc(Br)cc2)nn1-c1c(O)cn[nH]c1=O` [Compound 78, 4-[3-(4-bromophenyl)-5-methyl-1H-pyrazol-1-yl]-5-hydroxy-3(2H)-pyridazinone], for which the “Plant response rating, Blackgrass” value in test [2] (setting [4]) is 90; in test [2] (setting [5]), 100; in test [2] (setting [6]) it was 0; in test [2] (setting [7]) it was 100. Further, the “Plant response rating, Canarygrass” value in test [3] (setting [4]) worked out at 40; in test [3] (setting [5]), 70; in test [3] (setting [6]), 0; in test [3] (setting [7]) it was 100.

As for `Cc1cc(-c2ccc(Br)cc2)nn1-c1c(OC(=O)C2CC2)cnn(C(=O)C2CC2)c1=O` [Compound 80, 5-[3-(4-bromophenyl)-5-methyl-1H-pyrazol-1-yl]-1-(cyclopropylcarbonyl)-1,6-dihydro-6-oxo-4-pyridazinyl cyclopropanecarboxylate], the “Plant response rating, Blackgrass” value was 30 in test [2] (setting [4]), 100 in test [2] (setting [5]), 70 in test [2] (setting [6]) and 100 in test [2] (setting [7]). Moreover, the “Plant response rating, Canarygrass” value amounted to 40 in test [3] (setting [4]), 100 in test [3] (setting [5]), 60 in test [3] (setting [6]) and 100 in test [3] (setting [7]).

For the molecule `CCc1cc(-c2ccc(Cl)cc2)nn1-c1c(OS(C)(=O)=O)cnn(C)c1=O` [Compound 39], the “Plant response rating, Spiderwort, T.” value was determined as 0 in test [1] (16 g ai/ha, Preemergence); 0 in test [1] (31 g ai/ha, Preemergence); 0 in test [1] (62 g ai/ha, Preemergence); 0 in test [1] (Postemergence, 8 g ai/ha); 0 in test [1] (Postemergence, 16 g ai/ha); 0 in test [1] (Postemergence, 31 g ai/ha). Also, the “Plant response rating, Spiderwort, T.” value in test [1] (Postemergence, 62 g ai/ha) was 0.

Consider `Cc1nn(C)c(=O)c(-n2nc(-c3ccc(C(F)(F)F)cc3)cc2C)c1O` [Compound 75, 5-hydroxy-2,6-dimethyl-4-[5-methyl-3-[4-(trifluoromethyl)phenyl]-1H-pyrazol-1-yl]-3(2H)-pyridazinone], for which the “Plant response rating, Blackgrass” value was determined as 40 in test [2] (setting [4]), 90 in test [2] (setting [5]), 40 in test [2] (setting [6]) and 80 in test [2] (setting [7]). Also, the “Plant response rating, Canarygrass” value amounted to 10 in test [3] (setting [4]), 80 in test [3] (setting [5]), 10 in test [3] (setting [6]) and 80 in test [3] (setting [7]).
